# According to ChEMBL document CHEMBL5724564, “Patient-derived NASH model to assess the effects of chemical probes on hepatocyte regenerations” (2024):
# System: Hepatocyte spheroids
# Experiment: Cell viability is assessed by cellular ATP assay using CellTiter-Glo Luminescent kit. Viability is expressed as average RLU from biological replicates and normalized to negative control.Toxicity is defined as those with normalized ATP significantly less than 80 percent of the negative control.
# Assay type: functional, Homo sapiens
# Parameters: unit not given here
# Details: not given
row,Compound,Proliferation
1,CNC(=O)Nc1ccc2c(c1)CC[C@@]21OC(=O)N(CC(=O)N(Cc2ccc(F)cc2)[C@@H](C)C(F)(F)F)C1=O [A-485],0.02668
2,CN(C)C/C=C/C(=O)Nc1cc2c(Nc3ccc(F)c(Cl)c3)ncnc2cc1O[C@H]1CCOC1.O=C(O)/C=C\C(=O)O.O=C(O)/C=C\C(=O)O [AFATINIB DIMALEATE],0.1122
3,O=C(N1CCS(=O)(=O)CC1)N1C[C@H](c2ccc(OC(F)(F)F)cc2)C[C@H](c2nc(C3CC3)no2)C1 [BAY-386],0.02871
4,CC(=O)C1=C(C)N(c2cccc(C(F)(F)F)c2)C(=O)N[C@@H]1c1ccc(C#N)nc1 [BAY-678],0.03291
5,Cc1c(NC(=O)c2cc(C(N)=O)nc3cc(F)ccc23)c(C(F)(F)F)nn1Cc1ccc(C#N)cc1 [BAY-876],0.01262
6,O=C(O)[C@H]1[C@H](Cn2nnc3ccccc3c2=O)CC[C@@H]1C(=O)c1ccc(OCCC2CCOCC2)cc1 [BAY-7598],0.03535
7,CCOCCn1cc(C(=O)Nc2ccc(-n3nc(-c4cccnc4)cc3C(F)(F)F)cn2)ccc1=O [BI 1935],0.3766
8,CC(=O)N1CCC(c2ccc(C(=O)NC(=N)N)cc2C(F)(F)F)CC1 [BI 9627],0.09817
9,CCC(=O)N[C@H]1CC[C@@H](C(=O)N(C)c2ccc(-c3nc4ccccc4o3)cc2)C1 [BI 99179],0.7724
10,CN(C)C(=O)Cn1cc(-c2nc([C@@](C)(c3ccc(-c4cnc(N)nc4)cc3)C3CC3)no2)cn1 [BI 665915],0.119
11,Cn1cnc2c1c(=O)n(CCCn1c(=O)c3c(ncn3C)n(C)c1=O)c(=O)n2C [BISDIONIN C],0.03665
12,O=c1nc(-c2ccccn2)sc2ccccc12 [BTZO-1],0.08275
13,CNC(=O)c1ccc(Nc2ncc(C(F)(F)F)c(NCc3nccnc3N(C)S(C)(=O)=O)n2)cc1 [DEFACTINIB],0.1091
14,O=C(O)Cc1ccccc1Nc1c(Cl)cccc1Cl [DICLOFENAC],0.2575
15,C[C@@H](NC(=O)Nc1cc2[nH]ncc2c(CO)n1)c1ccccc1 [ERKi],0.06922
16,CC(C)c1ccc(Nc2nccc(-c3cnn4ncccc34)n2)cc1 [GW805758X],0.2702
17,CN(Cc1cnc2nc(N)nc(N)c2n1)c1ccc(C(=O)N[C@@H](CCC(=O)O)C(=O)O)cc1 [METHOTREXATE],0.002627
18,O=C(NOC[C@H](O)CO)c1ccc(F)c(F)c1Nc1ccc(I)cc1F [MIRDAMETINIB],0
19,O=S(=O)(NC1CCC(c2cc(F)ccc2F)(S(=O)(=O)c2ccc(Cl)cc2)CC1)C(F)(F)F (stereo not drawn) [MRK-560],0.1212
20,Cc1cc(Nc2nccc(C)n2)cc(-c2cnc([C@@]3(O)CC[C@H](C(=O)O)C(C)(C)C3)s2)c1 [MRL-SYKi],0
21,CC(=O)Nc1c(C(C)=O)c(=O)n(C)c2nc(-c3ccc(Cl)cc3Cl)c(-c3ccc(Cl)cc3)cc12 [NAPHTHYRIDINONE],0.005874
22,Cn1c(=O)c(Oc2ccc(F)cc2F)cc2cnc(NC(CCO)CCO)nc21 [PAMAPIMOD],0.003154
23,Cn1cnc2c(F)c(Nc3ccc(Br)cc3Cl)c(C(=O)NOCCO)cc21 [SELUMETINIB],0.04298
24,Cn1cc(-c2ccc3nnc(Sc4ccc5ncccc5c4)n3n2)cn1 [SGX-523],0.3569
25,O=C1c2ccc(Nc3ccc(F)cc3F)cc2CCc2ccc(OC[C@H](O)CO)cc21 [Skepinone-L],0.2651
26,COc1cccc(CNC(=O)c2nc3scc(COCc4ccc(C(=O)O)cc4)c3c(=O)[nH]2)c1 [T-26c],0.5771
27,Nc1nc2[nH]cnc2c(=S)[nH]1 [THIOGUANINE],0.05104
28,C[C@@H]1CCN(C(=O)CC#N)C[C@@H]1N(C)c1ncnc2[nH]ccc12.O=C(O)CC(O)(CC(=O)O)C(=O)O [TOFACITINIB CITRATE],0.01527
29,CC(=O)Nc1cccc(-n2c(=O)n(C3CC3)c(=O)c3c(Nc4ccc(I)cc4F)n(C)c(=O)c(C)c32)c1 [TRAMETINIB],0
30,NC(=O)c1ccc(N(C(N)=O)c2c(F)cccc2F)nc1-c1ccc(F)cc1F [VX-702],0.02591

# Same assay, conditions: Concentration range 10nM-10uM
row,Compound,Proliferation
1,Cc1cn(CCN2CCN(c3ccccc3-c3cc(C#N)cc(C(=O)NCCCN4CCCC4)c3)CC2)c2ccccc12,0.05285
2,Cc1cc2nc(N3CCC(C(=O)NC4CCCC4)CC3)n(C(C)C)c2cc1C,0.1009
3,CCN(C(=O)CO)[C@H]1CN(/C(=N\C#N)Nc2cccc(OC(F)F)c2)N=C1c1ccc(Cl)c(Cl)c1,0.05466
